Literature values as cited in US20200101029A1, “METHOD AND SYSTEM FOR PRESERVING COGNITIVE CAPACITY DURING AGING” (priority 2018, published 2020).
Read-outs that look alike come from different tables or passages of the source.

Tests used:
[1] = test system: mice exposed to bleomycin
[2] = human cohort study
[3] = test system: genetically-engineered fly; details: spermidine feeding during all their lives
[4] = murine models
[5] = test system: rat model of Alzheimer's disease
[6] = 1 gram per day (500 mg twice daily)

NCCCCNCCCN [spermidine]
accumulation of damaging protein in the mouse lung ([1]; pre-treatment with spermidine): could reduce or prevent | removal of established scar tissue in the lung ([1]; subsequent dosing, even at higher dose): did not remove it | safety and tolerability of supplementation [2]: safe and excellently tolerated | aging-associated abnormal protein (excess presynaptic vesicles in olfactory neurons) [3]: prevented | fly memory over aging [3]: preserved over aging | safety and tolerability of supplementation [4]: safe and excellently tolerated

Bifidobacterium
effect on memory deficit [5]: improving memory deficit

O=c1c(O)c(-c2ccc(O)c(O)c2)oc2cc(O)cc(O)c12 [quercetin]
patients with improvement of symptoms of at least 25 percent [6]: more than 67% | tolerability [6]: well tolerated
